According to patent US20260174905A1, “COMPOSITIONS AND METHODS FOR IMPROVED ADENOVIRAL-BASED GENE THERAPY UTILIZING CORT[…]” (Pacira Therapeutics, Inc., priority 2023, published 2026):

Experiments:
HEK293 cells = assay: HDAd-LacZ infection with corticosteroid, X-Gal staining for LacZ expression in HEK293 cells; format: cell-based; conditions: dose range of corticosteroid with HDAd-LacZ
Method: Methods: 116 cells or HEK293 cells were seeded in 12-well or 96-well plates in standard cell culture media. One day later, cells were infected with the gene therapy vector HDAd-LacZ (a helper-dependent adenoviral vector expressing beta-galactosidase (LacZ) under the control of the constitutive CMV promoter) at different multiplicities of infections (MOIs; virus particles per cells seeded) mixed with different amounts/concentrations of the corticosteroids triamcinolone acetonide (TAC; TriamHEXAL®, Hexal AG, Holzkirchen, Germany), betamethasone (Celestan®, MSD, Kenilworth, NJ, USA), or dexamethasone (Lipotalon®, Recordati, Milan, Italy). HDAd-LacZ was produced by GeneQuine Biotherapeutics GmbH (HDAd-LacZ originally sourced from Baylor College of Medicine, USA). In an experiment evaluating different timing or administration of the corticosteroid relative to administration of the HDAs-LacZ, cells were either pre-treated with TAC 3 hours prior to infection with HDAd-LacZ (PRE), TAC treatment and HDAd-LacZ infection was done simultaneously as described above (SIMULTANEOUS), or cells were treated with TAC 3 hours post infection with HDAd-LacZ (POST). One day later, supernatants were aspirated and cell monolayers were stained for LacZ expression using the X-Gal staining kit according to manufacturer's manual (OZ Bioscience, Marseille, France). Macroscopic and microscopic (at 4× or 10× magnification) photos of the stained monolayers were taken (blue staining indicates LacZ expression). A preliminary measure of intensity of the staining was semi-quantitatively measured using ImageJ software by converting the images to 8-bit grayscale and drawing regions of interest around the areas to be measured. The mean intensity values (on a scale of 0-255; 0 being black and 255 being white) were subtracted from 255, divided by 255 and multiplied by 100, i.e. reported values were on a scale of 0-100 (0 being white and 100 being black) where higher values indicate more intense (darker) staining.

rat knee joint = assay: Synovial/periarticular inflammation in rat knee joint after intraarticular HDAd-LacZ with or without TAC; format: in vivo; conditions: coadministration of 0.06 mg TAC with HDAd-LacZ
Method: Rats obtained from Envigo (Indianapolis, IN) were housed in polycarbonate cages, 4 animals per cage. After 4 days acclimatization, on study day 0, animals (mean weight of 310 g) were randomized into groups by bodyweight, 6 animals per group. Following randomization, test article administration was performed by intraarticular injection of 50 μL/joint. In respective groups, animals were treated with: 5E7 VP HDAd-LacZ, 5E8 VP HDAd-LacZ, 5E9 VP HDAd-LacZ, 5E10 VP HDAd-LacZ, 5E7 VP HDAd-LacZ+0.06 mg TAC, 5E8 VP HDAd-LacZ+0.06 mg TAC, 5E9 VP HDAd-LacZ+0.06 mg TAC, 5E10 VP HDAd-LacZ+0.06 mg TAC or vehicle.
For the groups co-treated with HDAd-LacZ and TAC, TAC suspension was prepared by diluting the commercially available injectable suspension (Kenalog 10, Bristol-Myers Squibb) with isotonic saline solution and added to the HDAd-LacZ preparation (i.e. the injection volume of 50 μL of the test article+TAC mixture contained 0.06 mg TAC).
At necropsy on study day 4, the rats were anesthetized with isoflurane. […]
The tissues were evaluated by the investigator microscopically for inflammation and X-gal staining in a blinded manner. The approximate lengths of the medial and lateral synovia were measured using an ocular micrometer. The lengths of the X-gal-stained areas were measured, and the length of staining relative to the total length of the area (%) was determined. […]

Row | Compound | concentration at which enhancement of HDAd-mediated LacZ expression started (HEK293 cells) [ng/mL] | HDAd-LacZ mediated inflammation (synovial/periarticular) (rat knee joint)
1 | C[C@H]1C[C@H]2[C@@H]3CCC4=CC(=O)C=C[C@]4(C)[C@@]3(F)[C@@H](O)C[C@]2(C)[C@@]1(O)C(=O)CO [betamethasone] | 3.9 | –
2 | C[C@@H]1C[C@H]2[C@@H]3CCC4=CC(=O)C=C[C@]4(C)[C@@]3(F)[C@@H](O)C[C@]2(C)[C@@]1(O)C(=O)CO [dexamethasone] | 3.9 | –
3 | CC1(C)O[C@@H]2C[C@H]3[C@@H]4CCC5=CC(=O)C=C[C@]5(C)[C@@]4(F)[C@@H](O)C[C@]3(C)[C@]2(C(=O)CO)O1 [TAC, triamcinolone acetonide] | 0.18 | reduced
